pEC50: −log10 of the molar value. Converted amounts (≈) assume the structure as drawn.

A short description of the first series: Half life in human liver microsome by LC-MS/MS analysis. Particulars: liver microsomes. The class given is ADME.
The molecule `CC(C)C(=O)Nc1ccc2nn(-c3ccc(Cl)cc3)nc2c1` gave a half-life of 291 min.

Molecule `CC(C)C(=O)Nc1ccc2cn(-c3ccc(Cl)cc3)nc2c1` displayed a half-life of 198 min.

The next series in a line: Aqueous solubility of the compound in 0.01 M phosphate buffered saline at pH 7.4 after 2 hrs by turbidimetric method. The class given is physicochemical.
Settings: not given
In turn, `CC(C)C(=O)Nc1ccc2nn(-c3ccc(Cl)cc3)nc2c1` yielded a solubility (kinetic) at 2 h of 1 µM (≈ 0.315 µg/mL).

In turn, `CC(C)C(=O)Nc1ccc2cn(-c3ccc(Cl)cc3)nc2c1` showed a solubility (kinetic) at 2 h of 3 µM (≈ 0.941 µg/mL).

A short description of the next series: Upregulation of utrophin transcription in mouse H2K cells after 48 hrs by luciferase reporter assay.
Settings: not given
Type of series: functional, cell-based. In general terms: A reporter such as luciferase makes a cellular process visible.
Consider `CCN(CC)c1ccc(-n2nc3cc(C)c(NC(=O)C(C)C)cc3n2)cc1`, for which the pEC50 was under 4.52.

The molecule `CS(=O)(=O)c1ccc2cn(-c3ccc(Cl)cc3)nc2c1` had a pEC50 of under 4.52.

With `CCS(=O)(=O)c1ccc2cn(-c3ccc(Cl)cc3)nc2c1`, the pEC50 was under 4.52.

`Nc1ccc2nn(-c3ccc(Cl)cc3)nc2c1` gave a pEC50 of under 4.52.

On to `CC(C)C(=O)Nc1ccc2nn(-c3ccc(Cl)cc3)nc2c1`, for which the pEC50 is 6.12.

Molecule `CC(=O)Nc1ccc2nn(-c3ccc(Cl)cc3)nc2c1` gave a pEC50 of 5.74.

In turn, `Cc1cc2nn(-c3ccc(Cl)cc3)nc2cc1NC(=O)c1cccnc1` showed a pEC50 of 5.51.

In turn, `Cc1cc2nn(-c3ccc(Cl)cc3)nc2cc1NC(=O)C(C)C` gave a pEC50 of under 4.52.

`CCS(=O)(=O)c1ccc2oc(-c3ccc4ccccc4c3)nc2c1` [EZUTROMID] had a pEC50 of 5.74.

`CCC(=O)Nc1cc2nn(-c3ccc(N(CC)CC)cc3)nc2cc1C` had a pEC50 of under 4.52.

Molecule `CCN(CC)c1ccc(-n2nc3cc(C)c(NC(=O)c4ccco4)cc3n2)cc1` showed a pEC50 of under 4.52.

The molecule `CCS(=O)(=O)c1ccc2nn(-c3ccc(Cl)cc3)nc2c1` showed a pEC50 of under 4.52.

In the case of `CC(C)C(=O)Nc1ccc2cn(-c3ccc(Cl)cc3)nc2c1`, the pEC50 was 5.76.

`CS(=O)(=O)c1ccc2nn(-c3ccc(Cl)cc3)nc2c1` gave a pEC50 of 4.93.

For `CCN(CC)c1ccc(-n2nc3ccc(N)cc3n2)cc1`, the pEC50 is 6.15.

The nature of the next series: Upregulation of utrophin transcription in mouse H2K cells at 3 uM after 48 hrs by luciferase reporter assay relative to 2-(4-(diethylamino)phenyl)-6-methyl-2H-benzo[d][1,2,3]triazol-5-amine. The class given is functional, cell-based.
Settings: not given
Regarding `CS(=O)(=O)c1ccc2nn(-c3ccc4ccccc4c3)nc2c1`, the Activity came to 63%.

In turn, `CC(C)C(=O)Nc1ccc2nn(-c3ccc(Cl)c(Cl)c3)nc2c1` returned an Activity of 87%.

Regarding `CCS(=O)(=O)c1ccc2nn(-c3ccc4ccccc4c3)nc2c1`, the Activity worked out at 73%.

A further series in a line: Upregulation of utrophin transcription in mouse H2K cells at 10 uM after 48 hrs by luciferase reporter assay relative to 2-(4-(diethylamino)phenyl)-6-methyl-2H-benzo[d][1,2,3]triazol-5-amine.
Settings: not given
The class given is functional, cell-based.
Take `CCS(=O)(=O)c1ccc2nn(-c3ccc(Cl)c(Cl)c3)nc2c1`: the Activity worked out at 52%.

As for `CC(C)S(=O)(=O)c1ccc2cn(-c3ccc(Cl)cc3)nc2c1`, the Activity was determined as 54%.

The nature of another series: Upregulation of utrophin mRNA expression in mouse H2K cells after 72 hrs by RT-PCR analysis relative to control. Type of series: functional, cell-based.
Settings: not given
The molecule `CC(C)C(=O)Nc1ccc2cn(-c3ccc(Cl)cc3)nc2c1` registered an Activity of 138%.

As usually defined, the half-life is how long it takes for the measured level to halve. Lower therefore signals fast loss. A word on the solubility (kinetic): it is solubility judged after dilution from a stock solution rather than from solid. The term pEC50 denotes −log10 of the EC50, conventionally taken in molar units.

Values taken from ChEMBL document CHEMBL1806483, “Discovery and SAR of 2-arylbenzotriazoles and 2-arylindazoles as potential treatments for Duchenne muscular dystrophy” (Bioorg Med Chem Lett, 2011).
